We go through eight molecules from ChEMBL document CHEMBL4321870, “Benzophenone Compounds, from a Marine-Derived Strain of the Fungus Pestalotiopsis neglecta, Inhibit Proliferation of Pancreatic Cancer Cells by Targeting the MEK/ERK Pathway” (J Nat Prod, 2019).

Test [1] has as its system PANC-1. The test can be described thus: Antiproliferative activity against human PANC1 cells incubated for 72 hrs by MTT assay. The class given is functional, cell-based. The conditions noted are these: PANC-1, 72 h.
The next test deals with A549. The test can be described thus: Antiproliferative activity against human A549 cells incubated for 72 hrs by MTT assay. The class given is functional, cell-based. The settings on record: A549, 72 h.
Another test has as its system HCT-116. The test is described as follows: Antiproliferative activity against human HCT116 cells incubated for 72 hrs by MTT assay. The class given is functional, cell-based. The conditions noted are these: HCT-116, 72 h. (Tetrazolium assays rely on reduction of a dye to a coloured formazan, in cell work by metabolically active cells.)
Test [2] in a line: Antiproliferative activity against human MCF cells incubated for 72 hrs by MTT assay. The class given is functional, cell-based.
For the next test, the system named is DU-145. The test is described as follows: Antiproliferative activity against human DU145 cells incubated for 72 hrs by MTT assay. The class given is functional, cell-based. The settings on record: DU-145, 72 h.
Another test concerns HepG2. The test can be described thus: Antiproliferative activity against human HepG2 cells incubated for 72 hrs by MTT assay. The class given is functional, cell-based. The settings on record: HepG2, 72 h.
In test [3] the test system is PANC-1. The test is described as follows: Inhibition of colony formation in human PANC1 cells incubated for 14 days by crystal violet staining based assay. The class given is functional, cell-based.
For test [4], the system named is PANC-1. The test is described as follows: Induction of apoptosis in human PANC1 cells assessed as increase in cleaved caspase-3 level incubated for 24 hrs by Western blot analysis. The class given is functional, cell-based.
Test [5] relates to PANC-1. The test is described as follows: Induction of apoptosis in human PANC1 cells assessed as increase in cleaved PARP level incubated for 24 hrs by Western blot analysis. The class given is functional, cell-based.
Test [6] concerns the target T1, Dual specificity mitogen-activated protein kinase kinase; MEK1/2 (Homo sapiens) (UniProt P36507+Q02750). The test is described as follows: Inhibition of MEK1/2 in human PANC1 cells assessed as decrease in phosphorylated levels of MEK at S217/221 at 5 uM incubated for 24 hrs by Western blotting analysis. The class given is cell-based. (In general: In western blotting, separated proteins are transferred to a membrane and probed.)

The target in test [7] is T1, Dual specificity mitogen-activated protein kinase kinase; MEK1/2 (Homo sapiens). The test can be described thus: Inhibition of MEK1/2 in human PANC1 cells assessed as decrease in phosphorylated levels of ERK(T202/Y204) at 5 uM incubated for 24 hrs by Western blotting analysis. The class given is cell-based.
The target is the same in test [8]. The test can be described thus: Inhibition of MEK1/2 in human PANC1 cells assessed as decrease in phosphorylated levels of ERK(T202/Y204) in nuclear fraction at 5 uM incubated for 24 hrs by Western blotting analysis. The class given is cell-based.
Test [9] shares this target. The settings on record: 10 uM.
Description: Inhibition of MEK1/2 in human PANC1 cells assessed as decrease in phosphorylated levels of MEK at S217/221 at 10 uM incubated for 24 hrs by Western blotting analysis

Calls of active or inactive are those of the source. The calls are words filed in the database; no cut-off is given here.

T1 sequence (P36507 whole entry, looked up): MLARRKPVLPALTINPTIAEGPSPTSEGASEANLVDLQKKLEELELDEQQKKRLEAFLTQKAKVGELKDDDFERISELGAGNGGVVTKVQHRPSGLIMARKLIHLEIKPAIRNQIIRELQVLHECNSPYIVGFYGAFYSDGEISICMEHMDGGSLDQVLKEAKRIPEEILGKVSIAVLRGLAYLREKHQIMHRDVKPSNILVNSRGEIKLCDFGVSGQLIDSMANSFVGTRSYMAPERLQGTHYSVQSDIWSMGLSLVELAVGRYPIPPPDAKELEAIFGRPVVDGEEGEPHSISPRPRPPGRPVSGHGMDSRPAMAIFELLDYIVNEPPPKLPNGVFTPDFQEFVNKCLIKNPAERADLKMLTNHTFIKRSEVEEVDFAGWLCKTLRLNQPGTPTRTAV
T1 sequence (Q02750 whole entry, looked up): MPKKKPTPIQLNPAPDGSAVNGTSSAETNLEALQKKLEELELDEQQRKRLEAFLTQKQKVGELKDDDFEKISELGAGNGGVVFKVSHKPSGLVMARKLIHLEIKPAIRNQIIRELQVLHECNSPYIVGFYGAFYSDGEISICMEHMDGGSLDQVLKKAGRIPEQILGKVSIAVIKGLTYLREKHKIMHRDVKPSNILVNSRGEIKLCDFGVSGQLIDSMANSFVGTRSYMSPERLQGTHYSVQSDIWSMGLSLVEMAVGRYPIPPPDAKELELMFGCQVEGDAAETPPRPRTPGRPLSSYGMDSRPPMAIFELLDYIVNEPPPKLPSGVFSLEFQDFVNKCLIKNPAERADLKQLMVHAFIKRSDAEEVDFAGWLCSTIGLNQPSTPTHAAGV

In general, IC50 refers to the concentration needed to halve the response being measured. A low value points to greater potency in that assay. `COc1cc(C)c(Cl)c(O)c1C(=O)c1c(C=O)c(O)cc(O)c1CC=C(C)C`: the IC50 with PANC-1 [1] worked out at 14 µM; in the test on A549 it was 14 µM; in the test with HCT-116, 10 µM; in [2], 11 µM; with DU-145 it was 21 µM; in the test on HepG2, 37 µM.
Take `CC(C)=CCc1c(O)cc(O)c(C=O)c1C(=O)c1c(O)cc(C)c(Br)c1O`: 7.6 µM corresponded to half-maximal inhibition in the test with PANC-1 [1] (IC50). Moreover, the inhibition result in the test with PANC-1 [3] was “Dose-dependent effect”. The Activity result with PANC-1 [4] and in the test on PANC-1 [5] was “Dose-dependent effect” in each case. Also, the inhibition entry in test [6], in [7] and in test [8] was “Active” throughout.
With `COc1cccc(-c2cc(=O)c3ccccc3o2)c1N`, the inhibition entry in [9] is “Active”.
Consider `COc1cc(C)c(Br)c(O)c1C(=O)c1c(C=O)c(O)cc(O)c1CC=C(C)C`, for which, in the test with PANC-1 [1], 26 µM corresponded to half-maximal inhibition (IC50).
On the same count and under the same terms, as for `COc1c(Cl)c(C)c(Cl)c(O)c1C(=O)c1c(C=O)c(O)cc(O)c1CC=C(C)C` [PESTALONE], the figure is 14 µM; as for `CC(C)=CCc1c(O)cc(O)c2c1C(=O)c1c(O)c(Cl)c(C)c(Cl)c1OC2` [PESTALACHLORIDE B], over 50 µM.
Turning to `O=c1[nH]cc(F)c(=O)[nH]1` [FLUOROURACIL], the half-maximal inhibitory concentration (IC50) in the test on PANC-1 [1] came out at 15 µM; in test [2], 11 µM; in the test with DU-145, 2.5 µM; in the test with HepG2 it was 2.5 µM.
For `CC(C)=CCc1c(O)cc(O)c(C=O)c1C(=O)c1c(O)cc(C)c(Cl)c1O`, the IC50 in the test with PANC-1 [1] was determined as 7.2 µM; with A549, 7.8 µM; with HCT-116, 5.5 µM; in test [2], 7.5 µM; in the test on DU-145, 14 µM; in the test on HepG2, 23 µM. The inhibition entry in the test with PANC-1 [3] was “Dose-dependent effect”. Besides, the Activity result in the test on PANC-1 [4] and in the test on PANC-1 [5] was “Dose-dependent effect” each time. Moreover, the inhibition result in test [6], in [7] and in [8] was “Active” in each case.
